From patent US20140147467A1, “Novel broth medium and blood free solid media” (priority 2012, published 2014) come the findings set out here.

Molecules are shown by their SMILES. Converted amounts (≈) assume the structure as drawn. Read-outs that look alike come from different tables or passages of the source.

Broadly, the MIC is the lowest concentration found to suppress growth.

The assay has as its system P. salmonis. The assay can be described thus: MIC by broth micro dilution in Austral-SRS broth. Format: cell-based. As to conditions: Piscirickettsia salmonis.
The mark [1] stands for this setting: P. salmonis ATCC VR-1361 (type strain), 18° C., read-out: MIC value.
[2] abbreviates: P. salmonis isolates (austral-005), 18° C., n=10, read-out: MIC values.

Compound `CS(=O)(=O)c1ccc([C@@H](O)[C@@H](CF)NC(=O)C(Cl)Cl)cc1` [florfenicol] showed an MIC of 0.5 µg/mL (≈ 1.4 µM). For the same compound, under setting [1], the minimal inhibitory concentration (MIC) lay in the range of 0.25 to 0.5 µg/mL (≈ 0.698 to 1.4 µM). In addition, the MIC under setting [2] is 0.25 to 0.5 µg/mL (≈ 0.698 to 1.4 µM).
`CN(C)[C@@H]1C(O)=C(C(N)=O)C(=O)[C@@]2(O)C(O)=C3C(=O)c4c(O)cccc4[C@@](C)(O)[C@H]3[C@H](O)[C@@H]12` [oxytetracycline] showed an MIC of 0.124 µg/mL (≈ 0.269 µM). Besides, under setting [1], the MIC lay in the range of 0.25 to 0.5 µg/mL (≈ 0.543 to 1.09 µM). Also, the MIC under setting [2] lay in the range of 0.125 to 2.5 µg/mL (≈ 0.271 to 5.43 µM).
